Measured values reported in patent US20240051946A1, “TARGETED PROTEIN DEGRADATION OF PARP14 FOR USE IN THERAPY” (Ribon Therapeutics, Inc., priority 2022, published 2024).

Biological target: T1, catalytic domain of human PARP14 (residues 1611 to 1801) with NanoLuc tag (Homo sapiens, UniProt Q460N5)
T1 construct: expressed in transfected cells; host or cells: HEK-293T cells (ATCC), plasmid pRTX240 in pcDNA3.1(-)
T1 sequence (Q460N5 1611-1801): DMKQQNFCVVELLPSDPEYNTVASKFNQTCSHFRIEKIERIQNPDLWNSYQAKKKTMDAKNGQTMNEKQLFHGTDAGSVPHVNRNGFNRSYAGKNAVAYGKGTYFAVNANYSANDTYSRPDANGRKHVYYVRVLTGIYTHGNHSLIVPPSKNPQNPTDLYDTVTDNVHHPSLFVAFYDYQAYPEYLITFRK
Assay: NanoLuc assay for the degradation of PARP14
Type: cell-based
Details: Assay A; NanoLuc-PARP14 overexpressed in HEK-293T cells; 2 hours at 37 degrees; luminescence
Experimental: The catalytic domain of human PARP14 (residues 1611 to 1801, GenBank Accession No. NM_017554) was inserted into the pcDNA3.1(−) vector. The insert also contained a NanoLuc tag on the N terminus of the PARP14 protein.
Degradation of PARP14 protein was assessed using measurement of the NanoLuc tag as proxy for the PARP14 protein. PARP14 with NanoLuc tag was overexpressed in […] cells (ATCC) using the plasmid described in Table 1. Plasmid DNA was diluted in empty vector DNA then added to 1.163 mL of phenol red free OptiMEM (Thermo Fisher). Plasmid DNA concentrations used in each assay described in Table 1. The plasmid DNA was mixed with 78.5 μL of Fugene HD (Promega) and allowed to incubate 5 minutes.
Next, 1.125 mL were added to 10 million 293T cells in DMEM (Thermo Fisher) supplemented with 10% FBS (VWR) and 1× Glutamax (Gibco). The transfection was incubated for 24 hrs at 37 degrees in an incubator supplemented with 5% CO2. The cells were then trypsinized and brought up in phenol red free OptiMEM media. Transfected HEK-293T cells were diluted to […] and then added to assay plate (Corning 3574) using a Multidrop (Thermo Fisher) to add 40 μL per well of the 384 well plate, resulting in 5,000 cells per well. 40 nL of a dose response curve diluted in DMSO of each test compound was added to the cell plate using a Mosquito (TTP Labtech) and the plate was incubated at 37 degrees for 2 hours. Assay plate was brought to room temperature then 20 μL per well of NanoGlo (Promega) was added to the plate. Luminescence was measured on an Envision (Perkin Elmer).
The average DMSO was calculated from 32 wells containing 0.1% DMSO only in columns 12 and 24 of the assay plate. The % of DMSO values were calculated as described below: […]
The % of DMSO values were plotted as a function of compound concentration and the following 4-parameter fit was applied to derive the DC50 values:
where top, bottom, and Hill Coefficient are allowed to float. Y is the % of DMSO and X is the compound concentration.
DC50 data for the Example compounds is provided below in Table 2 (“+” is <0.1 μM; “++” is ≥0.1 μM and <1 μM; and “+++” is ≥1 μM).

| SMILES | DC50 |
| --- | --- |
| CC(=O)N1CCC(COc2cc(F)c3c(=O)[nH]c(CSC4CCN(CC(=O)N5CCC(c6ccc(N7CCN(C8CCC(=O)NC8=O)C7=O)cc6)CC5)CC4)nc3c2)CC1 (centres unmarked) [Example 18, 3-(3-(4-(1-(2-(4-(((7-((1-acetylpiperidin-4-yl)methoxy)-5-fluoro-4-oxo-3,4-dihydroquinazolin-2-yl)methyl)thio)piperidin-1-yl)acetyl)piperidin-4-yl)phenyl)-2-oxoimidazolidin-1-yl)piperidine-2,6-dione] | < 100 nM |
| CC(=O)N1CCC(COc2cc(F)c3c(=O)[nH]c(CSC4CCN(CC(=O)N5CCC(CN6CCN(c7cccc8c7C(=O)N(C7CCC(=O)NC7=O)C8=O)CC6)CC5)CC4)nc3c2)CC1 (centres unmarked) [Example 19, 4-(4-((1-(2-(4-(((7-((1-acetylpiperidin-4-yl)methoxy)-5-fluoro-4-oxo-3,4-dihydroquinazolin-2-yl)methyl)thio)piperidin-1-yl)acetyl)piperidin-4-yl)methyl)piperazin-1-yl)-2-(2,6-dioxopiperidin-3-yl)isoindoline-1,3-dione] | < 100 nM |
| O=C1CCN(c2ccc(C3CCN(CC4CCN(C(=O)CN5CCC(SCc6nc7cc(OCC8CCOCC8)cc(F)c7c(=O)[nH]6)CC5)CC4)CC3)cc2)C(=O)N1 [Example 20, 1-(4-(1-((1-(2-(4-(((5-fluoro-4-oxo-7-((tetrahydro-2H-pyran-4-yl)methoxy)-3,4-dihydroquinazolin-2-yl)methyl)thio)piperidin-1-yl)acetyl)piperidin-4-yl)methyl)piperidin-4-yl)phenyl)dihydropyrimidine-2,4(1H,3H)-dione] | < 100 nM |
| CC(=O)N1CCC(COc2cc(F)c3c(=O)[nH]c(CSC4CCN(C(=O)CNc5cccc6c5C(=O)N(C5CCC(=O)NC5=O)C6=O)CC4)nc3c2)CC1 (centres unmarked) [Example 21, 4-((2-(4-(((7-((1-acetylpiperidin-4-yl)methoxy)-5-fluoro-4-oxo-3,4-dihydroquinazolin-2-yl)methyl)thio)piperidin-1-yl)-2-oxoethyl)amino)-2-(2,6-dioxopiperidin-3-yl)isoindoline-1,3-dione] | < 100 nM |
| CC(=O)N1CCC(COc2cc(F)c3c(=O)[nH]c(CSC4CCN(C(=O)C5CCN(CC6CCN(c7cccc8c7C(=O)N(C7CCC(=O)NC7=O)C8=O)CC6)CC5)CC4)nc3c2)CC1 (centres unmarked) [Example 22, 4-(4-((4-(4-(((7-((1-acetylpiperidin-4-yl)methoxy)-5-fluoro-4-oxo-3,4-dihydroquinazolin-2-yl)methyl)thio)piperidine-1-carbonyl)piperidin-1-yl)methyl)piperidin-1-yl)-2-(2,6-dioxopiperidin-3-yl)isoindoline-1,3-dione] | < 100 nM |
| O=C1CCC(N2C(=O)c3cccc(N4CCC(CN5CCC(C(=O)N6CCC(SCc7nc8cc(NC9CCCC9)cc(F)c8c(=O)[nH]7)CC6)CC5)CC4)c3C2=O)C(=O)N1 (centres unmarked) [Example 23, 4-(4-((4-(4-(((7-(cyclopentylamino)-5-fluoro-4-oxo-3,4-dihydroquinazolin-2-yl)methyl)thio)piperidine-1-carbonyl)piperidin-1-yl)methyl)piperidin-1-yl)-2-(2,6-dioxopiperidin-3-yl)isoindoline-1,3-dione] | < 100 nM |
| CC(=O)N1CCC(COc2cc(F)c3c(=O)[nH]c(CSC4CCN(C(=O)CNc5ccc6c(c5)C(=O)N(C5CCC(=O)NC5=O)C6=O)CC4)nc3c2)CC1 (centres unmarked) [Example 24, 5-((2-(4-(((7-((1-acetylpiperidin-4-yl)methoxy)-5-fluoro-4-oxo-3,4-dihydroquinazolin-2-yl)methyl)thio)piperidin-1-yl)-2-oxoethyl)amino)-2-(2,6-dioxopiperidin-3-yl)isoindoline-1,3-dione] | < 100 nM |
| CC(=O)N1CCC(COc2cc(F)c3c(=O)[nH]c(CSC4CCN(C(=O)c5ccc(NC6CCC(=O)NC6=O)cc5)CC4)nc3c2)CC1 (centres unmarked) [Example 25, 3-((4-(4-(((7-((1-acetylpiperidin-4-yl)methoxy)-5-fluoro-4-oxo-3,4-dihydroquinazolin-2-yl)methyl)thio)piperidine-1-carbonyl)phenyl)amino)piperidine-2,6-dione] | < 100 nM |
| CC(=O)N1CCC(COc2cc(F)c3c(=O)[nH]c(CCC4CCN(C(=O)C5CCN(CC6CCN(c7cccc8c7C(=O)N(C7CCC(=O)NC7=O)C8=O)CC6)CC5)CC4)nc3c2)CC1 (centres unmarked) [Example 26, 4-(4-((4-(4-(2-(7-((1-acetylpiperidin-4-yl)methoxy)-5-fluoro-4-oxo-3,4-dihydroquinazolin-2-yl)ethyl)piperidine-1-carbonyl)piperidin-1-yl)methyl)piperidin-1-yl)-2-(2,6-dioxopiperidin-3-yl)isoindoline-1,3-dione] | < 100 nM |
| CC(=O)N1CCC(COc2cc(F)c3c(=O)[nH]c(CCC4CCN(CC(=O)N5CCC(CN6CCN(c7cccc8c7C(=O)N(C7CCC(=O)NC7=O)C8=O)CC6)CC5)CC4)nc3c2)CC1 (centres unmarked) [Example 27, 4-(4-((1-(2-(4-(2-(7-((1-acetylpiperidin-4-yl)methoxy)-5-fluoro-4-oxo-3,4-dihydroquinazolin-2-yl)ethyl)piperidin-1-yl)acetyl)piperidin-4-yl)methyl)piperazin-1-yl)-2-(2,6-dioxopiperidin-3-yl)isoindoline-1,3-dione] | < 100 nM |
| CC(=O)N1CCC(COc2cc(F)c3c(=O)[nH]c(CSC4CCN(CC(=O)N5CCC(CN6CCN(c7ccc8c(c7)C(=O)N(C7CCC(=O)NC7=O)C8=O)CC6)CC5)CC4)nc3c2)CC1 (centres unmarked) [Example 28, 5-(4-((1-(2-(4-(((7-((1-acetylpiperidin-4-yl)methoxy)-5-fluoro-4-oxo-3,4-dihydroquinazolin-2-yl)methyl)thio)piperidin-1-yl)acetyl)piperidin-4-yl)methyl)piperazin-1-yl)-2-(2,6-dioxopiperidin-3-yl)isoindoline-1,3-dione] | < 100 nM |
| O=C1CCC(N2C(=O)c3ccc(N4CCN(CC5CCN(C(=O)CN6CCC(SCc7nc8cc(NC9CCCC9)cc(F)c8c(=O)[nH]7)CC6)CC5)CC4)cc3C2=O)C(=O)N1 (centres unmarked) [Example 29, 5-(4-((1-(2-(4-(((7-(cyclopentylamino)-5-fluoro-4-oxo-3,4-dihydroquinazolin-2-yl)methyl)thio)piperidin-1-yl)acetyl)piperidin-4-yl)methyl)piperazin-1-yl)-2-(2,6-dioxopiperidin-3-yl)isoindoline-1,3-dione] | < 100 nM |
| CC(=O)N1CCC(COc2cc(F)c3c(=O)[nH]c(CSC4CCN(c5ccc6c(c5)C(=O)N(C5CCC(=O)NC5=O)C6=O)CC4)nc3c2)CC1 (centres unmarked) [Example 30, 5-(4-(((7-((1-acetylpiperidin-4-yl)methoxy)-5-fluoro-4-oxo-3,4-dihydroquinazolin-2-yl)methyl)thio)piperidin-1-yl)-2-(2,6-dioxopiperidin-3-yl)isoindoline-1,3-dione] | < 100 nM |
| CC(=O)N1CCC(COc2cc(F)c3c(=O)[nH]c(CSC4CCN(CC(=O)Nc5cccc6c5C(=O)N(C5CCC(=O)NC5=O)C6=O)CC4)nc3c2)CC1 (centres unmarked) [Example 31, 2-(4-(((7-((1-acetylpiperidin-4-yl)methoxy)-5-fluoro-4-oxo-3,4-dihydroquinazolin-2-yl)methyl)thio)piperidin-1-yl)-N-(2-(2,6-dioxopiperidin-3-yl)-1,3-dioxoisoindolin-4-yl)acetamide] | 100 to 1000 nM |
